Experimental findings from US11319299B2, “Substituted carboxamides as inhibitors of WDR5 protein-protein binding” (PROPELLON THERAPEUTICS INC., priority 2016, dated 2022) are described below.

pKd: −log10 of the molar value.

For the experiment, the target named is WDR5 (Homo sapiens (Human), UniProt P61964). Kind of experiment: Surface Plasmon Resonance (SPR) assay, KD and residence time. In kind it is binding. The settings on record: surface plasmon resonance (SPR); read-out: WDR5 binding affinity (KD).

As usually defined, the pKd is the negative decadic logarithm of the Kd, by convention in mol/L.

Take `C[C@@H]1CN(c2cc(F)c(C3=CCN(C(=O)OC4CC(F)(F)C4)C3)cc2NC(=O)c2c[nH]c(=O)cc2C(F)F)C[C@H](C)N1C` [Example 637, 3,3-Difluorocyclobutyl 3-(5-(4-(difluoromethyl)-6-oxo-1,6-dihydropyridine-3-carboxamido)-2-fluoro-4-((3S,5R)-3,4,5-trimethylpiperazin-1-yl)phenyl)-2,5-dihydro-1H-pyrrole-1-carboxylate]: the negative-log Kd (pKd) was 8.65.

For the compound `C[C@H]1CN(c2cc(F)c(C3=CCN(C(=O)OC4CC(F)(F)C4)C3)cc2NC(=O)c2c[nH]c(=O)cc2C(F)F)CCN1C` [Example 638, 3,3-Difluorocyclobutyl (S)-3-(5-(4-(difluoromethyl)-6-oxo-1,6-dihydropyridine-3-carboxamido)-4-(3,4-dimethylpiperazin-1-yl)-2-fluorophenyl)-2,5-dihydro-1H-pyrrole-1-carboxylate], the negative-log Kd (pKd) is 8.64.

`C[C@H]1CN(c2cc(F)c(C3=CCN(c4cnc(C#N)nc4)CC3)cc2NC(=O)c2c[nH]c(=O)cc2C(F)F)CCN1C` [Example 639, (S)—N-(5-(1-(2-cyanopyrimidin-5-yl)-1,2,3,6-tetrahydropyridin-4-yl)-2-(3,4-dimethylpiperazin-1-yl)-4-fluorophenyl)-4-(difluoromethyl)-6-oxo-1,6-dihydropyridine-3-carboxamide]: the negative-log Kd (pKd) was 8.30.

As to `C[C@@H]1CN(c2ncc(-c3cc(NC(=O)c4cn(C)c(=O)cc4C(F)(F)F)c(N4C[C@@H](C)N(C)[C@@H](C)C4)cc3F)cn2)CCO1` [Example 640, N-[4-fluoro-5-[2-[(2R)-2-methylmorpholin-4-yl]pyrimidin-5-yl]-2-[(3R,5S)-3,4,5-trimethylpiperazin-1-yl]phenyl]-1-methyl-6-oxo-4-(trifluoromethyl)pyridine-3-carboxamide], the pKd was 8.76.

On to `C[C@@H]1CN(c2cc(F)c(-c3cnc(N4CCC(C)(O)CC4)nc3)cc2NC(=O)c2cn(C)c(=O)cc2C(F)(F)F)C[C@H](C)N1C` [Example 641, N-[4-fluoro-5-[2-(4-hydroxy-4-methylpiperidin-1-yl)pyrimidin-5-yl]-2-[(3R,5S)-3,4,5-trimethylpiperazin-1-yl]phenyl]-1-methyl-6-oxo-4-(trifluoromethyl)pyridine-3-carboxamide], for which the pKd was 8.72.

`C[C@@H]1CN(c2cc(F)c(C3=CCCN(c4nc(C#N)cs4)C3)cc2NC(=O)c2c[nH]c(=O)cc2C(F)(F)F)C[C@H](C)N1C` [Example 642, N-[5-[1-(4-cyano-1,3-thiazol-2-yl)-3,6-dihydro-2H-pyridin-5-yl]-4-fluoro-2-[(3R,5S)-3,4,5-trimethylpiperazin-1-yl]phenyl]-6-oxo-4-(trifluoromethyl)-1H-pyridine-3-carboxamide]: the pKd is 8.89.

For `C[C@@H]1CN(c2cc(F)c(C3=CCCN(c4ncco4)C3)cc2NC(=O)c2c[nH]c(=O)cc2C(F)(F)F)C[C@H](C)N1C` [Example 643, N-[4-fluoro-5-[1-(1,3-oxazol-2-yl)-3,6-dihydro-2H-pyridin-5-yl]-2-[(3R5S)-3,4,5-trimethylpiperazin-1-yl]phenyl]-6-oxo-4-(trifluoromethyl)-H-pyridine-3-carboxamide], the pKd was 8.90.

In the case of `C[C@@H]1CN(c2cc(F)c(C3=CCCN(c4ncccn4)C3)cc2NC(=O)c2c[nH]c(=O)cc2C(F)F)C[C@H](C)N1C` [Example 644, 4-(difluoromethyl)-N-[4-fluoro-5-(1-pyrimidin-2-yl-3,6-dihydro-2H-pyridin-5-yl)-2-[(3R,5S)-3,4,5-trimethylpiperazin-1-yl]phenyl]-6-oxo-1H-pyridine-3-carboxamide], the pKd was 8.88.

Regarding `COc1cnc(N2CCC=C(c3cc(NC(=O)c4c[nH]c(=O)cc4C(F)F)c(N4C[C@@H](C)N(C)[C@@H](C)C4)cc3F)C2)nc1` [Example 645, 4-(difluoromethyl)-N-[4-fluoro-5-[1-(5-methoxypyrimidin-2-yl)-3,6-dihydro-2H-pyridin-5-yl]-2-[(3R,5S)-3,4,5-trimethylpiperazin-1-yl]phenyl]-6-oxo-1H-pyridine-3-carboxamide], the pKd is 8.85.

Regarding `C[C@@H]1CN(c2cc(F)c(C3=CCN(c4ncc(C=O)cn4)CC3)cc2NC(=O)c2c[nH]c(=O)cc2C(F)F)C[C@H](C)N1C` [Example 646, 4-(difluoromethyl)-N-[4-fluoro-5-[1-(5-formylpyrimidin-2-yl)-3,6-dihydro-2H-pyridin-4-yl]-2-[(3R,5S)-3,4,5-trimethylpiperazin-1-yl]phenyl]-6-oxo-1H-pyridine-3-carboxamide], the negative logarithm of the Kd (pKd) is 8.85.

With `COc1cc(N2CC=C(c3cc(NC(=O)c4c[nH]c(=O)cc4C(F)F)c(N4C[C@@H](C)N(C)[C@@H](C)C4)cc3F)CC2)ncn1` [Example 647, 4-(difluoromethyl)-N-[4-fluoro-5-[1-(6-methoxypyrimidin-4-yl)-3,6-dihydro-2H-pyridin-4-yl]-2-[(3R,5S)-3,4,5-trimethylpiperazin-1-yl]phenyl]-6-oxo-1H-pyridine-3-carboxamide], the pKd is 8.80.

`CCOC(=O)N1CCC=C(c2cc(NC(=O)c3c[nH]c(=O)cc3C(F)F)c(N3C[C@@H](C)N(C)[C@@H](C)C3)cc2F)C1` [Example 648, Ethyl 5-[5-[[4-(difluoromethyl)-6-oxo-1H-pyridine-3-carbonyl]amino]-2-fluoro-4-[(3R,5S)-3,4,5-trimethylpiperazin-1-yl]phenyl]-3,6-dihydro-2H-pyridine-1-carboxylate]: the pKd is 8.71.

Regarding `C[C@@H]1CN(c2cc(F)c(C3=CCN(C(=O)OC4(C)CCC4)CC3)cc2NC(=O)c2c[nH]c(=O)cc2C(F)F)C[C@H](C)N1C` [Example 651, (1-methylcyclobutyl) 4-[5-[[4-(difluoromethyl)-6-oxo-1H-pyridine-3-carbonyl]amino]-2-fluoro-4-[(3R,5S)-3,4,5-trimethylpiperazin-1-yl]phenyl]-3,6-dihydro-2H-pyridine-1-carboxylate], the negative logarithm of the Kd (pKd) is 9.05.

Take `C[C@@H]1CN(c2cc(F)c(-c3cc(F)c(C(N)=O)c(F)c3)cc2NC(=O)c2ccc(F)cc2C(F)(F)F)C[C@H](C)N1C` [Example 656, 2,6-difluoro-4-[2-fluoro-5-[[4-fluoro-2-(trifluoromethyl)benzoyl]amino]-4-[(3R,5S)-3,4,5-trimethylpiperazin-1-yl]phenyl]benzamide]: the pKd was 8.26.

For `C[C@@H]1CN(c2cc(F)c(-c3cc(F)c(C(N)=O)c(F)c3)cc2NC(=O)c2c[nH]c(=O)cc2C(F)(F)F)C[C@H](C)N1C` [Example 658, N-[5-(4-carbamoyl-3,5-difluorophenyl)-4-fluoro-2-[(3R,5S)-3,4,5-trimethylpiperazin-1-yl]phenyl]-6-oxo-4-(trifluoromethyl)-1H-pyridine-3-carboxamide], the pKd is 8.73.

Take `C[C@@H]1CN(c2cc(F)c(-c3cc(F)c(C(N)=O)c(F)c3)cc2NC(=O)c2c[nH]c(=O)cc2C(F)F)C[C@H](C)N1C` [Example 659, N-[5-(4-carbamoyl-3,5-difluorophenyl)-4-fluoro-2-[(3R,5S)-3,4,5-trimethylpiperazin-1-yl]phenyl]-4-(difluoromethyl)-6-oxo-1H-pyridine-3-carboxamide]: the pKd is 8.71.
